Measured values: patent publication US20220324865A1 (Bayer Aktiengesellschaft, priority 2018, published 2022)

biological target: T1, human EP3 receptor (Homo sapiens, UniProt P43115); experiment: Cellular in vitro assay for determining EP3 receptor activity (human EP3 cell line, sulprostone-stimulated calcium luminescence); format: cell-based; conditions: CHO cells expressing human EP3 and mitochondrial Clytin; antagonist mode, sulprostone at EC50; read-out: EP3 CHO mtCLY ANTAG IC50
T1 construct: expressed in transfected cells; host or cells: CHO K1 (Chinese Hamster Ovary), stably co-transfected with Galpha16 and mitochondrial clytin
T1 sequence (P43115 1-390): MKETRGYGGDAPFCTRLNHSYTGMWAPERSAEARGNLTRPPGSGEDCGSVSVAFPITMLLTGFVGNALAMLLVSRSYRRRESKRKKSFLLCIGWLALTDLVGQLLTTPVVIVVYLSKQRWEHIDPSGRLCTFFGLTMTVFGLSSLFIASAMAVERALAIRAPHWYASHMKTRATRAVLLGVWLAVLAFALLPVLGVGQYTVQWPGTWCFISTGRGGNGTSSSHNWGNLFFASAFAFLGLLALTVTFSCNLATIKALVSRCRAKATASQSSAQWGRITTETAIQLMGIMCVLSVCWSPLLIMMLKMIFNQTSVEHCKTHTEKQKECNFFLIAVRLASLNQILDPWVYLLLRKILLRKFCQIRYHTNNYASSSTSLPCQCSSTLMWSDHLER
How it was run: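 Antagonist activity was measured as inhibition of the luminescent calcium signal elicited by EC50 sulprostone, following 10 min compound pretreatment. The cell line was recombinant CHO K1 co-expressing human EP3, Gα16 and the photoprotein Clytin, reconstituted with coelenterazine.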

IC50 [nM]	SMILES
9.95	COCc1c(C(=O)N[C@@H](c2ccc(F)cc2)C(C)(C)O)nn2cc(-c3ccc(Cl)c(F)c3)[nH]c(=O)c12 [6-625]
3.15	COc1ccc(C(NC(=O)c2nn3cc(-c4ccc5ccccc5c4)[nH]c(=O)c3c2C#N)C2CC2)cc1 (stereo not drawn) [Example 3-56, 3-Cyano-N-[cyclopropyl(4-methoxyphenyl)methyl]-6-(2-naphthyl)-4-oxo-5H-pyrazolo[1,5-a]pyrazine-2-carboxamide]
1.3	Cc1ccc(-c2cn3nc(C(=O)N[C@H](C)C(C)C)c(C4CC4)c3c(=O)[nH]2)cc1Cl [6-274]
0.57	Cc1ccc(-c2cn3nc(C(=O)N[C@@H](c4ccc(F)cc4)C(C)(C)O)c(C(F)(F)C(F)(F)F)c3c(=O)[nH]2)cc1Cl [6-488]
0.905	Cc1ccc(-c2cn3nc(C(=O)N[C@@H](c4ccc(F)cc4)C(C)(C)O)c(C(F)(F)F)c3c(=O)[nH]2)cc1C [Example 1-67, 6-(3,4-Dimethylphenyl)-N-[(1S)-1-(4-fluorophenyl)-2-hydroxy-2-methylpropyl]-4-oxo-3-(trifluoro-methyl)-4,5-dihydropyrazolo[1,5-a]pyrazine-2-carboxamide]
2.77	Cc1cc(-c2cn3nc(C(=O)N[C@@H](c4ccc(F)cc4)C(C)(C)O)c(C(F)(F)F)c3c(=O)[nH]2)ccc1F [6-648]
0.97	O=C(N[C@H](CCO)c1ccccc1)c1cc2c(=O)[nH]c(-c3ccc4ccccc4c3)cn2n1 [6-541]
3.43	Cc1ccc(-c2cn3nc(C(=O)N[C@@H](c4ccc(F)cc4)C(F)(F)CO)c(C)c3c(=O)[nH]2)c(F)c1F [6-413]
9.4	Cc1ccc(-c2cn3nc(C(=O)N[C@@H](c4ccccc4)C(C)(C)O)cc3c(=O)[nH]2)cc1F [6-640]
3.55	CC(CC(F)(F)F)NC(=O)c1cc2c(=O)[nH]c(-c3ccc4ccccc4c3)cn2n1 (stereo not drawn) [6-52]
0.95	Cc1cc(CNC(=O)c2nn3cc(-c4cnc5cccc(C)c5c4)[nH]c(=O)c3c2C(C)C)on1 [Example 4-41, N-[(3-Methyl-1,2-oxazol-5-yl)methyl]-6-(5-methylquinolin-3-yl)-4-oxo-3-(propan-2-yl)-4,5-dihydropyrazolo[1,5-a]pyrazine-2-carboxamide]
1.8	Cc1ccc(-c2cn3nc(C(=O)NCCN(CC(F)F)C4CC4)c(C4CC4)c3c(=O)[nH]2)cc1F [6-379]
2.1	CC[C@@H](C)NC(=O)c1nn2cc(-c3ccc(C)c(Cl)c3)[nH]c(=O)c2c1C(F)(F)F [Example 1-152, N-[(2R)-Butan-2-yl]-6-(3-chloro-4-methylphenyl)-4-oxo-3-(trifluoromethyl)-4,5-dihydropyrazolo-[1,5-a]pyrazine-2-carboxamide]
1.2	Cc1nc(-c2cn3nc(C(=O)N[C@@H](c4ccc(F)cc4)C(C)(C)O)c(C4CC4)c3c(=O)[nH]2)ccc1Cl [6-590]
3.35	CC(C)(C)OC(=O)N1CC(NC(=O)c2cc3c(=O)[nH]c(-c4ccc5c(c4)OCCO5)cn3n2)(c2ccc(F)cc2)C1 [6-54]
1.15	Cc1cccc2ncc(-c3cn4nc(C(=O)NC5CCOc6ccccc65)c(C(C)C)c4c(=O)[nH]3)cc12 (stereo not drawn) [Example 4-65, N-(3,4-Dihydro-2H-chromen-4-yl)-3-isopropyl-6-(5-methylquinolin-3-yl)-4-oxo-4,5-dihydropyrazolo[1,5-a]pyrazine-2-carboxamide]
3.1	Cc1cc(-c2cn3nc(C(=O)NC4(c5ccc(F)cc5)CN(CC(F)F)C4)c(C(F)(F)F)c3c(=O)[nH]2)ccc1Cl [6-239]
1.5	Cc1ccc(-c2cn3nc(C(=O)N[C@H](C)C(C)C)c(C4CC4)c3c(=O)[nH]2)cc1C [Example 1-143, 3-Cyclopropyl-6-(3,4-dimethylphenyl)-N-[(2R)-3-methylbutan-2-yl]-4-oxo-4,5-dihydropyrazolo-[1,5-a]pyrazine-2-carboxamide]
2.05	CCN1CCC(NC(=O)c2nn3cc(-c4ccc(Cl)c(C)c4)[nH]c(=O)c3c2C2CC2)(C(F)(F)F)C1 (racemic) [6-292]
0.85	Cc1ccc(-c2cn3nc(C(=O)N[C@@H](CO)C(F)(F)F)c(C4CC4)c3c(=O)[nH]2)cc1F [6-393]
1.3	Cc1ccc(-c2cn3nc(C(=O)NC(CO)c4ccc(F)cc4)c(C(F)(F)F)c3c(=O)[nH]2)cc1Cl (single isomer, unassigned) [6-156]

IC50 [nM]	SMILES
2.65	O=C(NC(CO)c1cc(Cl)cc(Cl)c1)c1cc2c(=O)[nH]c(-c3ccc4ccccc4c3)cn2n1 (stereo not drawn) [Example 2-26, N-[1-(3,5-Dichlorophenyl)-2-hydroxyethyl]-6-(2-naphthyl)-4-oxo-4,5-dihydropyrazolo[1,5-a]pyrazine-2-carboxamide]
5	Cc1ccc(-c2cn3nc(C(=O)NC4(c5ccc(F)cc5)CNC4)c(C(F)(F)F)c3c(=O)[nH]2)cc1C [Example 1-175, 6-(3,4-Dimethylphenyl)-N-[3-(4-fluorophenyl)azetidin-3-yl]-4-oxo-3-(trifluoromethyl)-4,5-dihydropyrazolo[1,5-a]pyrazine-2-carboxamide-hydrogen chloride (1/1)]
4.65	N#Cc1c(C(=O)NCCn2ccc(C3CC3)n2)nn2cc(-c3ccc4ccccc4c3)[nH]c(=O)c12 [Example 3-77, 3-Cyano-N-[2-(3-cyclopropyl-1H-pyrazol-1-yl)ethyl]-6-(naphthalen-2-yl)-4-oxo-4,5-dihydropyrazolo[1,5-a]pyrazine-2-carboxamide]
1.04	CC(C)(O)[C@@H](NC(=O)c1nn2cc(-c3ccc4ccccc4c3)[nH]c(=O)c2c1C(F)(F)F)c1ccccc1 [Example 1-18, N-[(1S)-2-Hydroxy-2-methyl-1-phenylpropyl]-6-(naphthalen-2-yl)-4-oxo-3-(trifluoromethyl)-4,5-dihydropyrazolo[1,5-a]pyrazine-2-carboxamide]
1.3	Cc1ccc(C(C)NC(=O)c2cc3c(=O)[nH]c(-c4ccc5ccccc5c4)cn3n2)cc1 (stereo not drawn) [Example 2-44, N-[1-(4-Methylphenyl)ethyl]-6-(2-naphthyl)-4-oxo-4,5-dihydropyrazolo[1,5-a]pyrazine-2-carboxamide]
3.55	CC(C)(O)[C@@H](NC(=O)c1nn2cc(-c3ccc(Cl)cc3)[nH]c(=O)c2c1C1CC1)c1ccc(F)cc1 [6-676]
2.55	Cc1ccc(-c2cn3nc(C(=O)NC(C)C4CCC4)c(C(F)(F)F)c3c(=O)[nH]2)cc1Cl (single isomer, unassigned) [6-194]
1.4	COC[C@H](NC(=O)c1nn2cc(-c3ccc(C(F)(F)F)c(C)c3)[nH]c(=O)c2c1C1CC1)c1ccccc1 [6-137]
1.5	Cc1ccc(-c2cn3nc(C(=O)N[C@H](CCO)c4ccc(F)cc4)c(C#N)c3c(=O)[nH]2)cc1C [Example 1-58, 3-Cyano-6-(3,4-dimethylphenyl)-N-[(1R)-1-(4-fluorophenyl)-3-hydroxpropyl]-4-oxo-4,5-dihydropyrazolo[1,5-a]pyrazine-2-carboxamide]
3.8	CC(C)c1c(C(=O)N[C@@H](c2ccc(F)cc2)C(F)(F)CO)nn2cc(-c3ccc(Cl)c(F)c3)[nH]c(=O)c12 [6-536]
2.67	Cc1ccc(-c2cn3nc(C(=O)N[C@@H](C)CCO)c(C4CC4)c3c(=O)[nH]2)cc1Cl [6-270]
1.95	Cc1ccc(-c2cn3nc(C(=O)NC(c4ccc(F)cc4)C(F)(F)CO)cc3c(=O)[nH]2)cc1C (racemic) [6-357]
2.6	Cc1ccc(-c2cn3nc(C(=O)N[C@H](C)CO)c(C4CC4)c3c(=O)[nH]2)cc1C [Example 1-154, 3-Cyclopropyl-6-(3,4-dimethylphenyl)-N-[(2R)-1-hydroxpropan-2-yl]-4-oxo-4,5-dihydropyrazolo-[1,5-a]pyrazine-2-carboxamide]
2.6	CCn1ccc(C(C)NC(=O)c2nn3c(C)c(-c4ccc5ccccc5c4)[nH]c(=O)c3c2C)n1 (stereo not drawn) [Example 3-4, N-[1-(1-Ethylpyrazol-3-yl)ethyl]-3,7-dimethyl-6-(2-naphthyl)-4-oxo-5H-pyrazolo[1,5-a]pyrazine-2-carboxamide]
0.855	CCN(CCO)CC(NC(=O)c1nn2cc(-c3ccc4ccccc4c3)[nH]c(=O)c2c1C(F)(F)F)c1ccccc1 (stereo not drawn) [Example 1-28, N-[2-[Ethyl(2-hydroxyethyl)amino]-1-phenylethyl]-6-(2-naphthyl)-4-oxo-3-(trifluoromethyl)-5H-pyrazolo[1,5-a]pyrazine-2-carboxamide]
6.6	Cc1ccc(-c2cn3nc(C(=O)NCC(N)C(F)(F)F)c(C4CC4)c3c(=O)[nH]2)cc1F (racemic) [6-395]
6	Cc1ccc(-c2cn3nc(C(=O)N[C@@H](c4ccc(F)cc4)C(F)(F)CO)cc3c(=O)[nH]2)cc1F [6-645]
16.9	CC(CN1CCOCC1)NC(=O)c1nn2cc(-c3ccc4ccccc4c3)[nH]c(=O)c2c1C(F)(F)F (racemic) [6-522]
3.1	CC(NC(=O)c1cc2c(=O)[nH]c(-c3ccc4ccccc4c3)cn2n1)c1ccc(F)cc1 (stereo not drawn) [6-19]
0.915	Cc1ccc(-c2cn3nc(C(=O)NC4(c5ccc(F)cc5)CN(C)C4)c(C(C)C)c3c(=O)[nH]2)cc1C [Example 1-91, 6-(3,4-Dimethylphenyl)-N-[3-(4-fluorophenyl)-1-methylazetidin-3-yl]-4-oxo-3-(propan-2-yl)-4,5-dihydropyrazolo[1,5-a]pyrazine-2-carboxamide]
6.03	O=C(NCCC(F)(F)F)c1cc2c(=O)[nH]c(-c3ccc4cccc(F)c4c3)cn2n1 [6-41]
